ChEMBL document CHEMBL1821607, “N-Arylalkyl-2-azaadamantanes as cage-expanded polycarbocyclic sigma (σ) receptor ligands” (Bioorg Med Chem Lett, 2011)
pKi: −log10 of the molar value.

How the values were obtained:
[1] = target: T1, Alpha-1D adrenergic receptor (Homo sapiens) (UniProt P25100); assay: Inhibition of alpha-1D adrenergic receptor at 10 uM by NIMH PDSP
T1 sequence (whole entry): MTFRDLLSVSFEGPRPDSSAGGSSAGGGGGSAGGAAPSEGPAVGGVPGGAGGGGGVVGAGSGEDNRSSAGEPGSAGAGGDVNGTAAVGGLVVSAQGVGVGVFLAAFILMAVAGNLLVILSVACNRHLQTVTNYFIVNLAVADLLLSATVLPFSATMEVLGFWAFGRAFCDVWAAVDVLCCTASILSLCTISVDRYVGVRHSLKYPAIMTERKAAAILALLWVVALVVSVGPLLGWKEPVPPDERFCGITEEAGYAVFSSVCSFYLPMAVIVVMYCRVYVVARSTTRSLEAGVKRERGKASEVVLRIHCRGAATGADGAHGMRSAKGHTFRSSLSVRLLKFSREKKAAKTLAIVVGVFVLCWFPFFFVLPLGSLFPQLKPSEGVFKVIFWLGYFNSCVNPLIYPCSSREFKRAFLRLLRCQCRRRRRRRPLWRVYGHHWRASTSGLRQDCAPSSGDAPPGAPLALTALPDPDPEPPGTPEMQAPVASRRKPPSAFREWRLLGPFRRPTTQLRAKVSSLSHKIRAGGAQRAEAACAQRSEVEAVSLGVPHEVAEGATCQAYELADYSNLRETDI

[2] = target: Muscarinic acetylcholine receptor M2 (Homo sapiens, UniProt P08172); assay: Inhibition of M2 muscarinic receptor by NIMH PDSP
[3] = target: Muscarinic acetylcholine receptor M4 (Homo sapiens, UniProt P08173); assay: Inhibition of M4 muscarinic receptor by NIMH PDSP
[4] = target: T2, Kappa-type opioid receptor (Homo sapiens, UniProt P41145); assay: Inhibition of kappa opioid receptor at 10 uM by NIMH PDSP
[5] = target: Muscarinic acetylcholine receptor M5 (Homo sapiens, UniProt P08912); assay: Inhibition of M5 muscarinic receptor by NIMH PDSP
[6] = target: Sodium-dependent dopamine transporter (Homo sapiens) (UniProt Q01959); assay: Inhibition of DAT transporter at 10 uM by NIMH PDSP
[7] = target: T3, Alpha-1B adrenergic receptor (Homo sapiens) (UniProt P35368); assay: Inhibition of alpha-1B adrenergic receptor at 10 uM by NIMH PDSP
T3 sequence (whole entry): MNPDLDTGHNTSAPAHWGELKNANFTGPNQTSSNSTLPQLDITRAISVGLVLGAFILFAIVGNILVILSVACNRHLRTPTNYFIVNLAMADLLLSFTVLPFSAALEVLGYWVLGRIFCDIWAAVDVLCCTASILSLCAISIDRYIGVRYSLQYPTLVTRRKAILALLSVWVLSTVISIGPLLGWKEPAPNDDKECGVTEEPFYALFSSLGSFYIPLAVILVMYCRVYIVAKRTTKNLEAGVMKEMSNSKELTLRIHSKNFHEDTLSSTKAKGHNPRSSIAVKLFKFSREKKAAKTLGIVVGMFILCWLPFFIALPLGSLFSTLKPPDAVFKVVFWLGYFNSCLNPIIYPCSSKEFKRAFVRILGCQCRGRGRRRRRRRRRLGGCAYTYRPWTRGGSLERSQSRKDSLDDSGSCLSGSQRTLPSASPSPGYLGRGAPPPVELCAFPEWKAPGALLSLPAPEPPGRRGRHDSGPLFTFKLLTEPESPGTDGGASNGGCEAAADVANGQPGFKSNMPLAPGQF

[8] = target: Beta-1 adrenergic receptor (Homo sapiens) (UniProt P08588); assay: Inhibition of beta-1 adrenergic receptor at 10 uM by NIMH PDSP
[9] = target: T4, 5-hydroxytryptamine receptor 2C (Homo sapiens) (UniProt P28335); assay: Inhibition of 5-HT2C receptor at 10 uM by NIMH PDSP
T4 sequence (whole entry): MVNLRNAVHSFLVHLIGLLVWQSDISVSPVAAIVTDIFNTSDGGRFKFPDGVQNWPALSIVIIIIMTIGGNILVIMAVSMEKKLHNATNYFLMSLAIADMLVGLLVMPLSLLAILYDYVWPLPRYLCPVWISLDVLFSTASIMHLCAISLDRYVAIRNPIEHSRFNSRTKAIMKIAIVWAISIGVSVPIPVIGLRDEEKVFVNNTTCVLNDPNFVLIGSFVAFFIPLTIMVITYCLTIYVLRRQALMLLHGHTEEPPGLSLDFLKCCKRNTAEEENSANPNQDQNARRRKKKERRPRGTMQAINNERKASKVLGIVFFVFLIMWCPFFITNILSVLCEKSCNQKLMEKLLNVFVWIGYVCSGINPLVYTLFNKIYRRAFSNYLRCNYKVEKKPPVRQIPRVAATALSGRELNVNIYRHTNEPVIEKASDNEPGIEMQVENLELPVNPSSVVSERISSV

[10] = target: 5-hydroxytryptamine receptor 1E (Homo sapiens) (UniProt P28566); assay: Inhibition of 5-HT1E receptor at 10 uM by NIMH PDSP
[11] = target: 5-hydroxytryptamine receptor 5A (Homo sapiens) (UniProt P47898); assay: Inhibition of 5-HT5A receptor at 10 uM by NIMH PDSP
[12] = target: 5-hydroxytryptamine receptor 7 (Homo sapiens) (UniProt P34969); assay: Inhibition of 5-HT7 receptor at 10 uM by NIMH PDSP
[13] = Selectivity ratio of Ki for sigma 2 receptor in rat liver to Ki for sigma 1 receptor in guinea pig brain
[14] = target: Muscarinic acetylcholine receptor M4 (Homo sapiens) (UniProt P08173); assay: Inhibition of M4 muscarinic receptor at 10 uM by NIMH PDSP
[15] = target: Muscarinic acetylcholine receptor M5 (Homo sapiens) (UniProt P08912); assay: Inhibition of M5 muscarinic receptor at 10 uM by NIMH PDSP
[16] = Selectivity ratio of Ki for sigma 1 receptor in guinea pig brain to Ki for sigma 2 receptor in rat liver
[17] = target: T2, Kappa-type opioid receptor; assay: Inhibition of kappa opioid receptor by NIMH PDSP
[18] = target: Muscarinic acetylcholine receptor M2 (Homo sapiens) (UniProt P08172); assay: Inhibition of M2 muscarinic receptor at 10 uM by NIMH PDSP
[19] = target: Alpha-2A adrenergic receptor (Homo sapiens, UniProt P08913); assay: Inhibition of alpha-2A adrenergic receptor by NIMH PDSP
[20] = target: Alpha-2B adrenergic receptor (Homo sapiens, UniProt P18089); assay: Inhibition of alpha-2B adrenergic receptor by NIMH PDSP
[21] = target: Sodium-dependent noradrenaline transporter (Homo sapiens, UniProt P23975); assay: Inhibition of NET transporter at 10 uM by NIMH PDSP
[22] = target: Alpha-1A adrenergic receptor (Homo sapiens, UniProt P35348); assay: Inhibition of alpha-1A adrenergic receptor by NIMH PDSP
D(1A) dopamine receptor = D(1A) dopamine receptor (Homo sapiens, UniProt P21728); assay: Inhibition of D1 dopamine receptor by NIMH PDSP

Sequence of 5-hydroxytryptamine receptor 1E (Homo sapiens) (P28566 whole entry): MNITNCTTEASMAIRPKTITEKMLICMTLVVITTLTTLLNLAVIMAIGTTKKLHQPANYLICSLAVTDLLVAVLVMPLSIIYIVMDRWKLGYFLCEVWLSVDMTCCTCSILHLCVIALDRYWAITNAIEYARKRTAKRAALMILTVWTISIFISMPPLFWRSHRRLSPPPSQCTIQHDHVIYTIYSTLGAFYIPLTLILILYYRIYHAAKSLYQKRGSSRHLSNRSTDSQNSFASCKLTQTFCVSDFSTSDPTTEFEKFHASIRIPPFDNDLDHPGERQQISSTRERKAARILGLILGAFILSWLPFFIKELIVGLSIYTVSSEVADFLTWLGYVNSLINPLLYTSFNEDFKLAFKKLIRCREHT
Sequence of Beta-1 adrenergic receptor (Homo sapiens) (P08588 whole entry, looked up): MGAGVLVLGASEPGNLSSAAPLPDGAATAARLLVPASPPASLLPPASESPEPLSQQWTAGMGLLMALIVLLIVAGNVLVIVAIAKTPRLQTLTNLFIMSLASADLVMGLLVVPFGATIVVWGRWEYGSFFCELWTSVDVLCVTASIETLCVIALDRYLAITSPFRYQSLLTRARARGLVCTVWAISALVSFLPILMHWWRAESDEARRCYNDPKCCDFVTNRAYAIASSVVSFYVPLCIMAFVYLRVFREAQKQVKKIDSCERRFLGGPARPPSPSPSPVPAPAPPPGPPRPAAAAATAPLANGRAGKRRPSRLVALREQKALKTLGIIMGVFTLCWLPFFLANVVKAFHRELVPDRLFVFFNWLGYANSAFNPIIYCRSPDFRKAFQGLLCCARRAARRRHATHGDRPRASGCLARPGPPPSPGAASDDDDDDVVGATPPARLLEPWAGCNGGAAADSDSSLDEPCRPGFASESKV
T2 sequence (P41145 whole entry): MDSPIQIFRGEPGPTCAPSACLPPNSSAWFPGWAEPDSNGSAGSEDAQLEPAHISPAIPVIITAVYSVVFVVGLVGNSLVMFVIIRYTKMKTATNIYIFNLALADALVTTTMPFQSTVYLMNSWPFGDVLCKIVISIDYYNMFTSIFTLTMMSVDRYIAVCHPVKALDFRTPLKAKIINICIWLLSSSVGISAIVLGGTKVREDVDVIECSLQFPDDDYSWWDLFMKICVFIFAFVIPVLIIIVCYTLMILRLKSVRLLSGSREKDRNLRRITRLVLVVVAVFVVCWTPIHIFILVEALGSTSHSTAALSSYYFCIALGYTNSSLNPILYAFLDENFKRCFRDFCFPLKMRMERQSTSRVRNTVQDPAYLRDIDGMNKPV
Sequence of 5-hydroxytryptamine receptor 5A (Homo sapiens) (P47898 whole entry): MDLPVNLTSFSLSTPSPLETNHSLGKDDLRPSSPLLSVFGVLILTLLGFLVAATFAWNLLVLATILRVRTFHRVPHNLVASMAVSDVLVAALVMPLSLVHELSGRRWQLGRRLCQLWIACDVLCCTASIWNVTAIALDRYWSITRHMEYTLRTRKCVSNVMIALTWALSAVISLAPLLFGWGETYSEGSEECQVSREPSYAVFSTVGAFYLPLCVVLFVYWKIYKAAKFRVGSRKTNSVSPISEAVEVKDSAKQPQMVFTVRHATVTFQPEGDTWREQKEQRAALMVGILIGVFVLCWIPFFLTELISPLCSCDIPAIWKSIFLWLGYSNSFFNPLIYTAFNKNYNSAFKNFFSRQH
Sequence of 5-hydroxytryptamine receptor 7 (Homo sapiens) (P34969 whole entry): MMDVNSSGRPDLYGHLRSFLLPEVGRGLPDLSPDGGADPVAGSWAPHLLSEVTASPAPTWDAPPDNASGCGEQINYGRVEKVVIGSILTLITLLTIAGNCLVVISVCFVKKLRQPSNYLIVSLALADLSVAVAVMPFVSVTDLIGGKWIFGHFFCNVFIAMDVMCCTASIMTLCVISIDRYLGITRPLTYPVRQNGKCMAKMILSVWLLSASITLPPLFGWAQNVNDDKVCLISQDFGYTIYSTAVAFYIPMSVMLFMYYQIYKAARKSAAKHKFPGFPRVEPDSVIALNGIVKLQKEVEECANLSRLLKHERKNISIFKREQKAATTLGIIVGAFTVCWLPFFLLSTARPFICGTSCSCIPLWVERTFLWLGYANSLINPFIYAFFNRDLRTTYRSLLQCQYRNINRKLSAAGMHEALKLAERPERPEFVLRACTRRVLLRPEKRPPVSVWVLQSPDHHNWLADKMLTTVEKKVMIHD
Sequence of Muscarinic acetylcholine receptor M2 (P08172 whole entry): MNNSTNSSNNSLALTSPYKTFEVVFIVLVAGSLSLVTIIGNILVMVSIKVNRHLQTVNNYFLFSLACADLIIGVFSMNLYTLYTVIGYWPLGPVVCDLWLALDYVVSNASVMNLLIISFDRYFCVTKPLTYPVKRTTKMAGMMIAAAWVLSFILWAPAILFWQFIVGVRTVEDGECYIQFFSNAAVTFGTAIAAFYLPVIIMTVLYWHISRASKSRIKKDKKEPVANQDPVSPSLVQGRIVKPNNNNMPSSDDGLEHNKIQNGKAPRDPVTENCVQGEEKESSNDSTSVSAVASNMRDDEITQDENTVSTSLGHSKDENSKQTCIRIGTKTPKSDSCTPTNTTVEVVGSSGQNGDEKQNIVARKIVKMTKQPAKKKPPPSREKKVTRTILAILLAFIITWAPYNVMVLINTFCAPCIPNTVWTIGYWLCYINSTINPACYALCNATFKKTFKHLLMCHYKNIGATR
Sequence of Muscarinic acetylcholine receptor M2 (Homo sapiens) (P08172 whole entry): as above
Sequence of Muscarinic acetylcholine receptor M5 (P08912 whole entry): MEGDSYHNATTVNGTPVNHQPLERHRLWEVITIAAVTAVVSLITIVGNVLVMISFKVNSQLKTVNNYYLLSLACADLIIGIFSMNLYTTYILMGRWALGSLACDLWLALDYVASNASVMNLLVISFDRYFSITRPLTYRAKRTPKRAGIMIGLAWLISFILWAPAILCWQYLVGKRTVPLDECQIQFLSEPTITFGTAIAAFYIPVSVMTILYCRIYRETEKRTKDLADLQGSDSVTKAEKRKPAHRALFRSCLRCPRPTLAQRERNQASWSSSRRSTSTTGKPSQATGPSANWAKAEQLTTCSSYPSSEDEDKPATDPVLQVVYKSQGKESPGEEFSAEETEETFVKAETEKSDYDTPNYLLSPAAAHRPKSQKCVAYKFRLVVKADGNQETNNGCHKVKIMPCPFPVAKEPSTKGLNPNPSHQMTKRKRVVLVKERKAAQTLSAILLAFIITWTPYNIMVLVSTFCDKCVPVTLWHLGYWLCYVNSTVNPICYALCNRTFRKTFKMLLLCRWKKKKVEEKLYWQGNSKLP
Sequence of Muscarinic acetylcholine receptor M5 (Homo sapiens) (P08912 whole entry): as above
Sequence of Sodium-dependent dopamine transporter (Homo sapiens) (Q01959 whole entry): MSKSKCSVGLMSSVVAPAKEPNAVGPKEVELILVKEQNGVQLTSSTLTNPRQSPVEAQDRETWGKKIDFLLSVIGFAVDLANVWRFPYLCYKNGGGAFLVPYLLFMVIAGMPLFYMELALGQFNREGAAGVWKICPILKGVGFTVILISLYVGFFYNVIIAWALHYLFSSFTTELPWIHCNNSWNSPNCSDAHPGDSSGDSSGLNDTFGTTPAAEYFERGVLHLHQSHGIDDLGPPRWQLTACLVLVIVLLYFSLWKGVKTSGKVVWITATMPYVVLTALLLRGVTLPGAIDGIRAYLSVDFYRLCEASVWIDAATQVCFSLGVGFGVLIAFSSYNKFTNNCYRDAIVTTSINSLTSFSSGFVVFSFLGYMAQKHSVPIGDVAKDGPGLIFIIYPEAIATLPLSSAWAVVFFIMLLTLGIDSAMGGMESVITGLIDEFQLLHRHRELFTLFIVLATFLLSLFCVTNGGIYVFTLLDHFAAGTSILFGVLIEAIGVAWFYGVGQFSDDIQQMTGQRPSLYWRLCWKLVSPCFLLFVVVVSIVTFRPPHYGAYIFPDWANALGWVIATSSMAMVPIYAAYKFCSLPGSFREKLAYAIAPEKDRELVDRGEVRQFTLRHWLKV
Sequence of Muscarinic acetylcholine receptor M4 (Homo sapiens) (P08173 whole entry): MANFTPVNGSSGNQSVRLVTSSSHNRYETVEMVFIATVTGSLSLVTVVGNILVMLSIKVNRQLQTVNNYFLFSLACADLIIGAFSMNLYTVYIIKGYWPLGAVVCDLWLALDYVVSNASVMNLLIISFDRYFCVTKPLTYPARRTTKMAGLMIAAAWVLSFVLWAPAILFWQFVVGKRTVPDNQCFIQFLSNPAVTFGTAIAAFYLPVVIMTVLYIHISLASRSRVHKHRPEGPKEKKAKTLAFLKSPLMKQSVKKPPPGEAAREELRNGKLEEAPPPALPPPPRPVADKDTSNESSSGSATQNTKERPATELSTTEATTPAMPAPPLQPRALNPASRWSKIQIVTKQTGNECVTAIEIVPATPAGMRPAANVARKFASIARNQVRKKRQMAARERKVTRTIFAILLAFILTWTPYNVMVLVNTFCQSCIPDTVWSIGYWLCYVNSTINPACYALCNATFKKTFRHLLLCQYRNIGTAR
Sequence of Muscarinic acetylcholine receptor M4 (P08173 whole entry): as above
Sequence of Alpha-2B adrenergic receptor (P18089 whole entry): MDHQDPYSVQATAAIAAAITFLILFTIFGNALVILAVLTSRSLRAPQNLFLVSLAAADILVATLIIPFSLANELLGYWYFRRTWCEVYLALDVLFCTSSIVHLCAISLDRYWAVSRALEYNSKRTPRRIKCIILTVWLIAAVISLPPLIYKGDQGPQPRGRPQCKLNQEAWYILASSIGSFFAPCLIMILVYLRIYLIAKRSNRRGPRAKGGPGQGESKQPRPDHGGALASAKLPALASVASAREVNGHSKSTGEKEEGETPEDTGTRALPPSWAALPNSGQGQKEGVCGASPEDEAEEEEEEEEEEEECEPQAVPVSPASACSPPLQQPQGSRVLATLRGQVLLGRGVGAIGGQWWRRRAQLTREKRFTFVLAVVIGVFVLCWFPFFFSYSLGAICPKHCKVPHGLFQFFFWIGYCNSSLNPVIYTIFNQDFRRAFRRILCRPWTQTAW

c1ccc(CN2C3CC4CC(C3)CC2C4)cc1
< 50%: inhibition [1] | inhibition [4] | inhibition [6] | inhibition [7] | inhibition [8] | inhibition [9] | inhibition [10] | inhibition [11] | inhibition [12]
3.3: Ratio Ki [13]
5.18: pKi [5]
5.37: pKi [2]
5.75: pKi [3]

OC12CC3CC(CC(C3)N1Cc1cccc(F)c1)C2 (racemic)
5.92: pKi [17]
1.2: Ratio Ki [16]
< 50%: inhibition [14] | inhibition [15] | inhibition [1] | inhibition [7] | inhibition [8] | inhibition [9] | inhibition [10] | inhibition [11] | inhibition [12] | inhibition [18]

OC12CC3CC(CC(C3)N1Cc1ccccc1)C2 (racemic)
< 50%: inhibition [14] | inhibition [15] | inhibition [1] | inhibition [7] | inhibition [8] | inhibition [9] | inhibition [10] | inhibition [11] | inhibition [12] | inhibition [21] | inhibition [18]
6.18: pKi [17]
< 5.00: pKi [19] | pKi [20]
1.4: Ratio Ki [16]

Fc1cccc(CN2C3CC4CC(C3)CC2C4)c1
< 50%: inhibition [1] | inhibition [4] | inhibition [6] | inhibition [7] | inhibition [8] | inhibition [9] | inhibition [10] | inhibition [11] | inhibition [12]
5.45: pKi [2]
5.26: pKi [5]
6: Ratio Ki [13]
< 5.00: pKi [22] | pKi (D(1A) dopamine receptor)
5.87: pKi [3]
